# From patent US20260061084A1, “FIBROBLAST ACTIVATION PROTEIN (FAP) INHIBITORS, FAP CONJUGATES, AND DIAGNOSTIC AND THERAPEUTIC USES THEREOF” (Nuclidium AG, priority 2022, published 2026)
# Legend:
# [1] = tested on: HT-1080.hFAP (FAP-positive) cells; assay: In vitro cellular uptake (cell surface-bound and internalized fractions); assay type: cell-based, human; conditions: 37° C., specific uptake (HT-1080.wt subtracted)
# Protocol: The cellular uptake was studied in vitro using intact cells seeded in 6-well plates overnight. […] At each investigated time point, the medium containing the unbound (free) radiotracer was removed, followed by two washing steps with ice-cold phosphate-buffered saline. The cells were then treated 2×5 min with ice-cold glycine solution (0.05 M, pH 2.8) to detach the cell surface-bound radiotracer (acid released). Afterwards, the cells containing the internalized radiotracer were detached with 1 M NaOH at 37° C. and collected for measurement. The amount of specific cell surface-bound and internalized radiotracer is expressed as percentage of the total applied activity, after subtracting the non-specific values.
# The cells were then preconditioned in 360 μL of assay medium (MEM medium without supplements) at 37° C. for 60 min. 40 μL of a 2 nM solution of ^61Cu-labeled radioligand was added and the cells were incubated at 37° C. The cellular uptake was interrupted at different time points (15 min, 1 hour and 4 hours), by washing twice with ice-cold PBS. Cell surface-bound radioligand was obtained by washing cells twice with ice-cold glycine buffer (pH 2.8), followed by a collection of the internalized fraction with 1 M NaOH. The activity in each fraction was measured in a […] (Cobra II).
# [2] = tested on: Mice bearing FAP-positive and FAP-negative xenografts; assay: PET/CT imaging: remaining PET activity in the mouse body; assay type: in vivo
# Protocol: The mice were euthanized by CO2 at 4 hours p.i., and static PET scans were acquired for 30 min.
# PET/CT images were acquired using β-CUBE PET scanner system (Molecubes, Gent, Belgium), with a spatial resolution of 0.85 mm and an axial field-of-view of 13 cm. Dynamic PET scans were acquired for 60 min. All PET scans were decay corrected and reconstructed into a 192×192×384 matrix by an ordered subsets maximization expectation (OSEM) algorithm using 30 iterations, a voxel size of 400×400×400 μm a 15 min per frame. CT data was used to apply attenuation correction on the PET data. The CT was imaged supine, head first, using the NanoSPECT/CTTM scanner (Bioscan Inc.). Topograms and helical CT scans of the whole mouse were first acquired using the following parameters: X-ray tube current: 177 μA, X-ray tube voltage 45 kVp, 90 seconds and 180 frames per rotation, pitch 1. CT images were reconstructed using CTReco (version r1.146), with a standard filtered back projection algorithm (exact cone beam) and post-filtered (RamLak, 100% frequency cut-off), resulting in a pixel size of 0.2 mm. Co-registered PET/CT images were visualized using maximum intensity projection (MIP) with VivoQuant software (version 4.0).
# [3] = tested on: HT-1080.hFAP tumor-bearing mice; assay: Biodistribution studies in xenografted mice; assay type: in vivo; conditions: for Biodistribution: HT-1080.wt: FAP-negative tumor; for Biodistribution: HT-1080.hFAP: FAP-positive tumor
# Protocol: The tumors were allowed to grow to an average volume of 100-200 mm^3.
# Biodistribution Studies: The xenografted mice were randomized (n=5 per group) and injected intravenously via the tail vein with the ^61Cu-labeled radioligands (100 μL, […], 0.8-1MBq). Mice were euthanized 1 h and 4 h p.i. by CO2 asphyxiation. Organs of interest and blood were collected, rinsed of excess blood, blotted dry, weighed, and counted in a […]. The samples were counted against a suitably diluted aliquot of the injected solution as the standard and the results are expressed as the percentage of the injected activity per gram of tissue (% I.A./g) ±SD.
compound,measurement,setting,value
CN(C(=O)CCC(=O)N1CCN(C(=O)CCC(C(=O)O)N2CCN(CC(=O)[O-])CCN(CC(=O)[O-])CC2)CC1)c1ccc2nccc(C(=O)NCC(=O)N3CC(F)(F)CC3C#N)c2c1.[61Cu+2] (centres unmarked) [[^61Cu]Cu-NODAGA-4],Cell surface fraction,[1]; 15 min,1.0 ± 0.7 % of the applied activity
same,Internalized fraction,[1]; 30 min,22.2 ± 7.4 % of the applied activity
same,Cell surface fraction,[1]; 60 min,1.4 ± 0.4 % of the applied activity
same,Internalized fraction,[1]; 60 min,22.2 ± 5.1 % of the applied activity
same,Cell surface fraction,[1]; 240 min,0.9 ± 0.6 % of the applied activity
same,Internalized fraction,[1]; 240 min,17.4 ± 4.4 % of the applied activity
same,"Retention in the body (remaining PET activity 4 h p.i.), in words",[2],lowest value
same,Biodistribution: Heart,"[3]; 1 hour p.i., i.v.",0.6 ± 0.0 % I.A./g
same,Biodistribution: Intestine,"[3]; 1 hour p.i., i.v.",0.5 ± 0.2 % I.A./g
same,Biodistribution: Liver,"[3]; 1 hour p.i., i.v.",0.6 ± 0.1 % I.A./g
same,Biodistribution: Lung,"[3]; 1 hour p.i., i.v.",0.9 ± 0.1 % I.A./g
same,Biodistribution: Muscle,"[3]; 1 hour p.i., i.v.",0.8 ± 0.2 % I.A./g
same,Biodistribution: Spleen,"[3]; 1 hour p.i., i.v.",0.4 ± 0.0 % I.A./g
same,Biodistribution: Stomach,"[3]; 1 hour p.i., i.v.",0.5 ± 0.0 % I.A./g
same,Biodistribution: Adrenal,"[3]; 4 hours p.i., i.v.",0.5 ± 0.1 % I.A./g
same,Biodistribution: Blood,"[3]; 4 hours p.i., i.v.",0.4 ± 0.1 % I.A./g
same,Biodistribution: Heart,"[3]; 4 hours p.i., i.v.",0.2 ± 0.0 % I.A./g
same,Biodistribution: Intestine,"[3]; 4 hours p.i., i.v.",0.3 ± 0.1 % I.A./g
same,Biodistribution: Liver,"[3]; 4 hours p.i., i.v.",0.4 ± 0.0 % I.A./g
same,Biodistribution: Lung,"[3]; 4 hours p.i., i.v.",0.3 ± 0.0 % I.A./g
same,Biodistribution: Muscle,"[3]; 4 hours p.i., i.v.",0.4 ± 0.1 % I.A./g
same,Biodistribution: Pancreas,"[3]; 4 hours p.i., i.v.",0.4 ± 0.1 % I.A./g
same,Biodistribution: Spleen,"[3]; 4 hours p.i., i.v.",0.2 ± 0.0 % I.A./g
same,Biodistribution: Stomach,"[3]; 4 hours p.i., i.v.",0.2 ± 0.0 % I.A./g
same,Biodistribution: HT-1080.wt,"[3]; 1 hour p.i., i.v.",1.7 ± 0.2 % I.A./g
same,Biodistribution: HT-1080.wt,"[3]; 4 hours p.i., i.v.",0.6 ± 0.0 % I.A./g
same,Biodistribution: HT-1080.hFAP,"[3]; 1 hour p.i., i.v.",7.4 ± 1.6 % I.A./g
same,Biodistribution: HT-1080.hFAP,"[3]; 4 hours p.i., i.v.",3.0 ± 0.8 % I.A./g
same,"Accumulation in FAP-positive (HT-1080.hFAP) tumor and murine-FAP-positive tissues, such as the bone marrow (bones)","[3]; xenografted mice, 1 h and 4 h p.i.",high accumulation
